# Read-outs that look alike come from different tables or passages of the source.
# Key:
# [1] = system: T. cruzi (Tulahuen strain) expressing β-galactosidase; experiment: T. cruzi growth inhibition assay (β-gal activity, infection of NIH/3T3 cells); type: cell-based, Trypanosoma cruzi
# Experimental: NIH/3T3 cells and parasites were harvested, washed once and resuspended in DMEM supplemented with 2% FBS and Pen-Strep-Glut. […] Different numbers of NIH/3T3 cells were seeded in 96-well plates. After 3 h, compounds were added at the indicated concentrations and mixed by pipetting. BZN tablets (Rochagan, Roche) dissolved in DMSO and 4 µM Amphotericin B solution (Sigma-Aldrich) were used as positive controls. Different numbers of T. cruzi parasites were added in a final volume of 200 µl/well. After 4 days, 50 µl of PBS containing 0.5% of the detergent NP40 and 100 µM Chlorophenol Red-β-D-galactoside (CPRG) (Fluka) were added. Plates were incubated at 37°C for 4 h and absorbance was read at 590 nm using a Tecan Spectra Mini plate reader.
# To calculate the Z′ factor, we used the formula described by Zhang et al.: Z′ = 1−[(3σc++3σc−) / |μc+−μc−|] where σc+ = standard deviation (SD) of positive control, σc− = SD of negative control, μc+ = mean of positive control, μc− = mean of negative control. Subsequently, the best ratio was used for all growth inhibition assays (50.000 cells and parasites, multiplicity of infection (MOI) 1∶1).
# To determine IC50 values, β-gal activity (Abs590) was plotted against compound concentration for each compound. The IC50 was determined as the concentration at which the activity (absorbance) was half that in the absence of compound. Mean IC50 values are the average of independent experiments performed in triplicate on three different days.
# [2] = system: NIH/3T3 cells; experiment: Cytotoxicity assay (Alamar Blue) on NIH/3T3 cells; type: cell-based; conditions: 4-day assay on NIH/3T3 cells
# Experimental: (§1) Cells (NIH/3T3 or HepG2) were washed and plated at a density of 50,000 cells/well of 96-well plates in 200 µl and allowed to adhere for 3 h. Twenty-four hour assays were done in DMEM without phenol red supplemented with 10% FBS and Pen-Strep-Glut, while 4-day assays were done in the same medium containing 2% FBS. Drugs were added and mixed. After 1 or 4 days, 20 µl of Alamar Blue (Biosource, Invitrogen) was added. Plates were incubated for 4 h (HepG2) or 6 h (NIH/3T3) at 37°C and fluorescence was read using a Labsystems Fluoroskan II plate reader (excitation: 544 nm, emission: 590 nm) .
# (§2) To determine TC50 values, fluorescence was plotted against inhibitor concentration. TC50 was determined as the concentration at which cytotoxicity (fluorescence) was half that in the absence of inhibitor.
# [3] = system: mammalian cells; experiment: Cytotoxicity on mammalian cells (cell type not given); type: cell-based; conditions: cells and duration not stated
# Experimental: as §1, §2
# [4] = Trypanosoma cruzi, TULAHUEN, NIH3T3, 96 h, β-gal T. cruzi Tulahuen, 50.000 NIH/3T3 cells and parasites (MOI 1:1), 4 days, read-out: IC50 Intracellular growth
# [5] = Trypanosoma cruzi, TULAHUEN, NIH3T3, other confirmed hits that retained activity at 5 µg/ml, read-out: IC50 < 1 µg/ml
# [6] = β-gal T. cruzi Tulahuen, 50.000 NIH/3T3 cells and parasites (MOI 1:1), 4 days, read-out: IC50 Intracellular growth
# [7] = Trypanosoma cruzi, TULAHUEN, NIH3T3, 96 h, read-out: IC50 Intracellular growth
smiles,measurement,setting,value
"O=C(CCCn1cnc([N+](=O)[O-])n1)Nc1cc(C(F)(F)F)ccc1Cl [NT8, N-[2-chloro-5-(trifluoromethyl)phenyl]-4-(3-nitro-1H-1,2,4-triazol-1-yl)butanamide]",IC50,[1]; [4],983 ± 388 nM
"Cc1cc(Cl)cc(C)c1OCCCCCCn1ccnc1 [CX4, 1-[6-(4-chloro-2,6-dimethylphenoxy)hexyl]-1H-imidazole]",IC50,[1]; [4],300 nM
"Br.Cc1ccnc(Nc2nc(-c3ccccn3)cs2)c1 [4-methyl-N-[4-(2-pyridinyl)-1,3-thiazol-2-yl]-2-pyridinamine hydrobromide]",IC50,[1]; [5],< 1 µg/mL
same,TC50 > 25 mg/ml,[2],NO (> 25 mg/ml)
"O=C(Cn1cnc([N+](=O)[O-])n1)Nc1ccc(Cl)cc1C(F)(F)F [NT7, N-[4-chloro-2-(trifluoromethyl)phenyl]-2-(3-nitro-1H-1,2,4-triazol-1-yl)acetamide]",IC50,[1]; [4],1290 ± 463 nM
"Cc1cc(Cl)cc(C)c1OCCCCCn1ccnc1 [CX5, 1-[5-(4-chloro-2,6-dimethylphenoxy)pentyl]-1H-imidazole]",IC50,[1]; [4],20.5 nM
"O=C(CCCn1cnc([N+](=O)[O-])n1)Nc1ccccc1C(F)(F)F [NT9, 4-(3-nitro-1H-1,2,4-triazol-1-yl)-N-[2-(trifluoromethyl)phenyl]butanamide]",IC50,[1]; [4],3020 ± 1390 nM
"O=C(Cn1cnc([N+](=O)[O-])n1)Nc1cc(C(F)(F)F)ccc1Cl [NT6, N-[2-chloro-5-(trifluoromethyl)phenyl]-2-(3-nitro-1H-1,2,4-triazol-1-yl)acetamide]",IC50,[1]; [4],1130 ± 378 nM
"O=c1c2c3c(sc2[nH]c(=S)n1Cc1ccccc1)CCC3 [3-benzyl-2-thioxo-1,2,3,5,6,7-hexahydro-4H-cyclopenta[4,5]thieno[2,3-d]pyrimidin-4-one]",IC50,[1]; [5],> 1 µg/mL
same,TC50 > 25 mg/ml,[2],NO (> 25 mg/ml)
"CCN(CC)c1ccc(N=Cc2cccc(C)c2)cc1 [N,N-diethyl-N'-(3-methylbenzylidene)-1,4-benzenediamine]",IC50,[1]; [5],> 1 µg/mL
same,TC50 > 25 mg/ml,[2],YES (> 25 mg/ml)
"O=C(NN=Cc1ccc(-c2ccccc2Cl)o1)c1ccccn1 [PCH6, N′-{[5-(2-chlorophenyl)-2-furyl]methylene}-2-pyridinecarbohydrazide]",IC50,[1]; [4],2 nM
same,IC50,[1]; [6],2.1 nM
same,TC50,[3],18.5 µM
"Cc1cc(Cl)cc(C)c1OCCCCn1ccnc1 [CX6, 1-[4-(4-chloro-2,6-dimethylphenoxy)butyl]-1H-imidazole]",IC50,[1]; [4],71.6 ± 37 nM
"COc1ccc(-c2ccc(C=NNC(=O)c3ccccn3)o2)cc1Cl [PCH8, N′-{[5-(3-chloro-4-methoxyphenyl)-2-furyl]methylene}-2-pyridinecarbohydrazide]",IC50,"[1]; Trypanosoma cruzi, TULAHUEN, NIH3T3, 96 h, β-gal T. cruzi Tulahuen in NIH/3T3 cells, 4 days, read-out: IC50 T. cruzi growth inhibition",1600 nM
same,IC50,[1]; [4],1680 ± 490 nM
COc1ccc(NC(=S)NC(=O)c2ccco2)cc1 [N-{[(4-methoxyphenyl)amino]carbonothioyl}-2-furamide],IC50,[1]; [5],> 1 µg/mL
same,TC50 > 25 mg/ml,[2],YES (> 25 mg/ml)
"O=C(NN=Cc1cc(Br)cc(Br)c1O)c1cccc(N2CCCC2=O)c1 [N'-(3,5-dibromo-2-hydroxybenzylidene)-3-(2-oxo-1-pyrrolidinyl)benzohydrazide]",IC50,[1]; [5],> 1 µg/mL
same,TC50 > 25 mg/ml,[2],NO (> 25 mg/ml)
"O=C(Cn1cnc([N+](=O)[O-])n1)Nc1cc(Oc2cncc(Cl)c2)cc([N+](=O)[O-])c1 [NT4, N-{3-[(5-chloro-3-pyridinyl)oxy]-5-nitrophenyl}-2-(3-nitro-1H-1,2,4-triazol-1-yl)acetamide]",IC50,[1]; [7],1270 ± 251 nM
"O=C(NN=Cc1ccc(-c2cccc(Cl)c2Cl)o1)c1cccnc1 [PCH2, N′-{[5-(2,3-dichlorophenyl)-2-furyl]methylene}nicotinohydrazide]",IC50,[1]; [4],1930 ± 707 nM
"O=C(NN=Cc1ccc(-c2cccc(Cl)c2Cl)o1)c1ccncc1 [PCH3, N′-{[5-(2,3-dichlorophenyl)-2-furyl]methylene}isonicotinohydrazide]",IC50,[1]; [4],> 10000 nM
"Cc1cc(OCCCCn2ccnc2)cc(C)c1Cl [CX3, 1-[4-(4-chloro-3,5-dimethylphenoxy)butyl]-1H-imidazole]",IC50,[1]; [4],5.1 nM
"O=C(NN=Cc1ccc(-c2cccc(Cl)c2Cl)o1)c1ccc(Br)cc1 [PCH4, 4-bromo-N′-{[5-(2,3-dichlorophenyl)-2-furyl]methylene}benzohydrazide]",IC50,[1]; [4],> 10000 nM
"COc1cc(NC(=O)Cn2cnc([N+](=O)[O-])n2)cc([N+](=O)[O-])c1 [NT2, N-(3-methoxy-5-nitrophenyl)-2-(3-nitro-1H-1,2,4-triazol-1-yl)acetamide]",IC50,[1]; [7],2630 ± 808 nM
"O=C(NN=Cc1ccc(-c2ccccc2Cl)o1)c1cccnc1 [PCH10, N′-{[5-(2-chlorophenyl)-2-furyl]methylene}nicotinohydrazide]",IC50,[1]; [4],720 ± 183 nM
"Cc1ccc2n(c1)cc(C)[n+]2CC(=O)c1ccc(-c2ccccc2)cc1.[Br-] [1-[2-(4-biphenylyl)-2-oxoethyl]-2,6-dimethylimidazo[1,2-a]pyridin-1-ium bromide]",IC50,[1]; [5],> 1 µg/mL
same,TC50 > 25 mg/ml,[2],YES (> 25 mg/ml)
"Cc1cc(OCCCCCn2ccnc2)cc(C)c1Cl [CX2, 1-[5-(4-chloro-3,5-dimethylphenoxy)pentyl]-1H-imidazole]",IC50,[1]; [4],2 nM
same,IC50,[1]; [6],2.5 nM
same,TC50,[3],19.5 µM
"O=C(NN=Cc1ccc(-c2cccc(Cl)c2)o1)c1ccccn1 [PCH5, N′-{[5-(3-chlorophenyl)-2-furyl]methylene}-2-pyridinecarbohydrazide]",IC50,[1]; [4],29 ± 20 nM
"O=C(NN=Cc1ccc(-c2ccc(Cl)c(Cl)c2)o1)c1ccccn1 [PCH7, N′-{[5-(3,4-dichlorophenyl)-2-furyl]methylene}-2-pyridinecarbohydrazide]",IC50,[1]; [4],35 ± 20 nM
"O=C(Cn1cnc([N+](=O)[O-])n1)Nc1cccc(C(F)(F)F)c1 [NT5, 2-(3-nitro-1H-1,2,4-triazol-1-yl)-N-[3-(trifluoromethyl)phenyl]acetamide]",IC50,[1]; [4],1060 ± 385 nM
"CCOc1ccc(-c2cn3c4ccccc4n(CCN(CC)CC)c3n2)cc1.Cl [{2-[2-(4-ethoxyphenyl)-9H-imidazo[1,2-a]benzimidazol-9-yl]ethyl}diethylamine hydrochloride]",IC50,[1]; [5],> 1 µg/mL
same,TC50 > 25 mg/ml,[2],NO (> 25 mg/ml)
"O=C(Cn1cnc([N+](=O)[O-])n1)Nc1cc(Oc2cccnc2)cc([N+](=O)[O-])c1 [NT3, N-[3-nitro-5-(3-pyridinyloxy)phenyl]-2-(3-nitro-1H-1,2,4-triazol-1-yl)acetamide]",IC50,[1]; [7],4920 ± 1280 nM
"O=C(NN=Cc1ccc(-c2cc(Cl)ccc2Cl)o1)c1ccccc1 [PCH9, N′-{[5-(2,5-dichlorophenyl)-2-furyl]methylene}benzohydrazide]",IC50,[1]; [4],960 ± 300 nM
"CCOC(=O)c1ccc(Nc2nc3nonc3nc2NC(C)C)cc1 [ethyl 4-{[6-(isopropylamino)[1,2,5]oxadiazolo[3,4-b]pyrazin-5-yl]amino}benzoate]",IC50,[1]; [5],> 1 µg/mL
same,TC50 > 25 mg/ml,[2],NO (> 25 mg/ml)

# From article PMC2639639, “Identification of Three Classes of Heteroaromatic Compounds with Activity against Intracellular Trypanosoma cruzi by Chemical Library Screening” (PLoS Neglected Tropical Diseases, 2009)
